Measurements from patent US10189796B2, “[4-(1,3,3-trimethyl-2-oxo-3,4-dihydro-1H-quinoxalin-7-yl)phenoxy]ethyloxy compound or salt thereof” (SANTEN PHARMACEUTICAL CO., LTD., priority 2015, dated 2019).

Tests used:
[1] = test system: carrageenin-caused conjunctivitis model of rats; experiment: Conjunctivitis model evaluation test; format: in vivo, rat; conditions: 1% suspension, eye dropped 5 μL five times from 1 hour before to 3 hours after induction
Protocol: In order to evaluate an anti-inflammatory action of the present compound to conjunctivitis, an inhibitory effect on edema formation in a carrageenin-caused conjunctivitis model of rats was investigated. Incidentally, this effect was evaluated by calculating an edema formation inhibitory ratio from a weight of the edema in a base agent administered group (control group) and a weight of the edema in the test compound administered group.
A base agent containing a general additive(s) was added to the test compound to prepare test compound suspensions with 0.001% (W/V), 0.003% (W/V), 0.01% (W/V) and 1% (W/V). […]
Four hours after induction, rats under general anesthesia were sacrificed by decapitation method, conjunctival edema areas of both eyes were removed, and the weight of each was measured. The edema formation inhibitory ratio was calculated from the average value of the weight of the edema.
Based on the average value of the weight of the edema of the base agent administered group (control group), the edema formation inhibitory ratio of the test compound suspension eye drop group was calculated by the following calculation formula. […]

[2] = test system: exorbital lacrimal gland-removed rat dry eye model; experiment: Dry eye syndrome (dry eye) model evaluation test; format: in vivo; conditions: eye drop 5 μL four times a day
Protocol: In order to evaluate the treatment effect of the present compounds on corneal disorder accompanied by dry eye syndrome (dry eye), a treatment effect on corneal disorder in an exorbital lacrimal gland-removed rat dry eye model was investigated. This model was prepared in accordance with the method of Fujihara, et al. (Invest. Ophthalmol. Vis. Sci., 42(1): 96-100 (2001)). Incidentally, this effect was scored according to the method of Murakami et al. (New Ophthalmologist 21(1): 87-90 (2004)), the extent of corneal disorder was scored and the improvement ratio was calculated from the corneal disorder score of the base agent administered group (control group), the corneal disorder score of the test compound administered group and the corneal disorder score of the normal rat.
A base agent containing a general additive(s) was added to the test compound to prepare test compound suspensions with 0.03% (W/V) and 0.1% (W/V). In addition, a base agent was added to the commercially available drug A to prepare a diluted solution with 0.05% (V/V).
• 1) By using male SD rats, somnopentyl was administered to the rats to apply them general anesthesia, exorbital lacrimal glands were removed, and corneal disorder was induced over 8 weeks thereafter. • 2) The test compound suspension was eye-dropped (instillation dose: 5 μL/time) to both eyes four times a day for 14 days. Incidentally, the base agent was similarly eye-dropped to the administered group (control group), and the commercially available drug A and its diluted solution were similarly eye-dropped. • 3) Fourteen days after the start of eye dropping, the cornea was stained with fluorescein. For each of the upper part, the middle part and the lower part of the cornea, scores of the degree of staining with fluorescein were determined according to the following criteria, and an average value of the total of the scores was calculated. Incidentally, 0.5 was set as an intermediate value between each score of 0, 1, 2 and 3. <<Judgement Standard>>
1: Dyeing is sparse, and the dyed portions of each dot are separated
2: Dyeing is a middle degree and part of the dotted dyed portions is adjacent
3: Dyeing is dense, and the dyed portions of each point are almost adjacent
(Calculation Formula) Corneal disorder improvement ratio (%) of the test compound administered group=(Ao−Ax)/(Ao−An)×100 • Ao: Average value of corneal disorder score of the base agent administered group (control group) • Ax: Average value of corneal disorder score of the test compound administered group • An: Average value of corneal disorder score of normal rat (Test Result and Consideration)

[3] = test system: exorbital lacrimal gland-removed rat dry eye model; experiment: Dry eye syndrome (dry eye) model evaluation test; format: in vivo; conditions: eye drop 5 μL four times a day; remark: listed apart in the source

SMILES	Edema formation inhibitory ratio (%) [1] [%]	Corneal disorder improvement ratio (%) After 14 days eye dropping ([2]; 0.03%) [%]	Corneal disorder improvement ratio (%) After 14 days eye dropping ([2]; 0.1%) [%]	Corneal disorder improvement ratio (%) After 7 days eye dropping ([3]; 0.03%) [%]	Corneal disorder improvement ratio (%) After 7 days eye dropping ([3]; 0.1%) [%]
COc1ccc(O)cc1-c1ccc2c(c1COc1cc(F)ccc1C)N(C)C(=O)C(C)(C)N2 [Control compound C, 8-(5-fluoro-2-methylphenoxymethyl)-7-(5-hydroxy-2-methoxyphenyl)-1,3,3-trimethyl-3,4-dihydro-1H-quinoxalin-2-one]	14	–	–	–	–
COc1cc(OC[C@H](C)OC(=O)CN(C)C)ccc1-c1ccc2c(c1COc1cc(F)ccc1C)N(C)C(=O)C(C)(C)N2 [Compound 11-1, (S)-7-[4-[2-(N,N-dimethylaminoacetoxy)propyl]oxy-2-methoxyphenyl]-8-(5-fluoro-2-methylphenoxymethyl)-1,3,3-trimethyl-3,4-dihydro-1H-quinoxalin-2-one]	–	33	64	35	44
